Key:
[1] = molecular target: Bone morphogenetic protein receptor type-1B (Homo sapiens) (UniProt O00238); assay: ALK6(h) Eurofins kinase panel; details: Compound concentration 1.0 uM
[2] = molecular target: Calcium/calmodulin-dependent protein kinase type II subunit alpha (Homo sapiens) (UniProt Q9UQM7); assay: CaMKIIalpha(h) Eurofins kinase panel; details: Compound concentration 1.0 uM
[3] = molecular target: T1, Discoidin domain-containing receptor 2 (Homo sapiens) (UniProt Q16832); assay: DDR2(h) Eurofins kinase panel; details: Compound concentration 1.0 uM
T1 sequence (whole entry): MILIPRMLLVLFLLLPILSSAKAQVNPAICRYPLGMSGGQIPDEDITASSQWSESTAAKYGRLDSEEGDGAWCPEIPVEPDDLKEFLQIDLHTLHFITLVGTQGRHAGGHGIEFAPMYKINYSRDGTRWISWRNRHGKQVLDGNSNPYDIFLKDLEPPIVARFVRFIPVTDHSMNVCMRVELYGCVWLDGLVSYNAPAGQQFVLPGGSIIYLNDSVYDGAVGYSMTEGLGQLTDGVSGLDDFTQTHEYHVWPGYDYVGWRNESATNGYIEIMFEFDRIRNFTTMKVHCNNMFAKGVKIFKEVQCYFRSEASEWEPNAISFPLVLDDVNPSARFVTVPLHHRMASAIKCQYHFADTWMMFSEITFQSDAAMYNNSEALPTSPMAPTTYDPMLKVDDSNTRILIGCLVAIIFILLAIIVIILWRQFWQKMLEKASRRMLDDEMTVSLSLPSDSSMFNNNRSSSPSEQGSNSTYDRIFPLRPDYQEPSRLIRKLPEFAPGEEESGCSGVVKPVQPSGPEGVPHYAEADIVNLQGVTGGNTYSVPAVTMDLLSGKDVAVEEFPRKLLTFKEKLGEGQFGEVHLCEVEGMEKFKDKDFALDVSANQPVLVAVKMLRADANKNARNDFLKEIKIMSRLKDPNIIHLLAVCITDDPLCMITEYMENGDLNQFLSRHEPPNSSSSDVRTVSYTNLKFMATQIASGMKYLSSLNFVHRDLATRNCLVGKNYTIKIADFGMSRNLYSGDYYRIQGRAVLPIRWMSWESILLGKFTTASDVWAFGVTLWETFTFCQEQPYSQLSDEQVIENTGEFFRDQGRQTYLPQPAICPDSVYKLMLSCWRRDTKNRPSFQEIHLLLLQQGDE

[4] = molecular target: T2, Dual specificity tyrosine-phosphorylation-regulated kinase 2 (Homo sapiens) (UniProt Q92630); assay: DYRK2(h) Eurofins kinase panel; details: Compound concentration 1.0 uM
T2 sequence (whole entry): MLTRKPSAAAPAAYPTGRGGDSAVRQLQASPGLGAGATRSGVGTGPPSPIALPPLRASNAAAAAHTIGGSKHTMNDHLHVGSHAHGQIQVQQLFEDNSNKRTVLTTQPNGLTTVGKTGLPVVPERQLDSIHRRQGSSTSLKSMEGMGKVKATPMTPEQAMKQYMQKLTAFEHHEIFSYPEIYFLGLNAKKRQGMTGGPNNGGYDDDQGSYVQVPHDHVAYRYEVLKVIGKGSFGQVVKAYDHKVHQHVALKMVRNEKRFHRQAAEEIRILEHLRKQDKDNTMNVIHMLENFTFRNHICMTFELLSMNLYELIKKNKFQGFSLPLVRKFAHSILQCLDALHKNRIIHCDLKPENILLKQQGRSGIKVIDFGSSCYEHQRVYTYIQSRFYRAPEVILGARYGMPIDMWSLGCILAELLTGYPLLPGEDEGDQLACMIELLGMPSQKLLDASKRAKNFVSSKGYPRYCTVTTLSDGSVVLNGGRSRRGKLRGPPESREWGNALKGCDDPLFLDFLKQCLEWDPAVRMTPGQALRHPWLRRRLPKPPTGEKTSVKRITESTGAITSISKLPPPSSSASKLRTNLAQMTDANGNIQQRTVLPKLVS

[5] = molecular target: MAP/microtubule affinity-regulating kinase 3 (Homo sapiens) (UniProt P27448); assay: MARK3(h) Eurofins kinase panel; details: Compound concentration 1.0 uM
MAP/microtubule affinity-regulating kinase 3 (Homo sapiens), sequence (P27448 whole entry, looked up): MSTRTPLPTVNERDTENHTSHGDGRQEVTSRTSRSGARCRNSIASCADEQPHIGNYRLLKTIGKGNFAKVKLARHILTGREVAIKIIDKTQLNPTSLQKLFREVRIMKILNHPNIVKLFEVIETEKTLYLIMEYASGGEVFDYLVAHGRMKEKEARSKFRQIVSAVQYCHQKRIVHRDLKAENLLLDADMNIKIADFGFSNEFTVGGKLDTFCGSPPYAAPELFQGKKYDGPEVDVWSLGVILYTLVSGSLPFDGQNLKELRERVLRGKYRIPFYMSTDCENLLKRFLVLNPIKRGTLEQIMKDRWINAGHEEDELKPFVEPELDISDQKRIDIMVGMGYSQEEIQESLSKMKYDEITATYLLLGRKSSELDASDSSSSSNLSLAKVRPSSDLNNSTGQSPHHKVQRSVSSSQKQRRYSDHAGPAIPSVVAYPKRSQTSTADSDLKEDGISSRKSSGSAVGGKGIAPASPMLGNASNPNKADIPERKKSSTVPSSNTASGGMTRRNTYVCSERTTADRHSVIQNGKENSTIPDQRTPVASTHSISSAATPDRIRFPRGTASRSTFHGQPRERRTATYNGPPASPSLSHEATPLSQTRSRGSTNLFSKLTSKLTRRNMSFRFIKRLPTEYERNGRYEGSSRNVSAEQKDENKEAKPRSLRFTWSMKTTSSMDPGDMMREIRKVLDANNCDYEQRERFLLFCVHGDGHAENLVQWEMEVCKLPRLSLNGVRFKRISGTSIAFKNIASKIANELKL

[6] = molecular target: Mitogen-activated protein kinase kinase kinase 10 (Homo sapiens) (UniProt Q02779); assay: MLK2(h) Eurofins kinase panel; details: Compound concentration 1.0 uM
Mitogen-activated protein kinase kinase kinase 10 (Homo sapiens), sequence (Q02779 whole entry, looked up): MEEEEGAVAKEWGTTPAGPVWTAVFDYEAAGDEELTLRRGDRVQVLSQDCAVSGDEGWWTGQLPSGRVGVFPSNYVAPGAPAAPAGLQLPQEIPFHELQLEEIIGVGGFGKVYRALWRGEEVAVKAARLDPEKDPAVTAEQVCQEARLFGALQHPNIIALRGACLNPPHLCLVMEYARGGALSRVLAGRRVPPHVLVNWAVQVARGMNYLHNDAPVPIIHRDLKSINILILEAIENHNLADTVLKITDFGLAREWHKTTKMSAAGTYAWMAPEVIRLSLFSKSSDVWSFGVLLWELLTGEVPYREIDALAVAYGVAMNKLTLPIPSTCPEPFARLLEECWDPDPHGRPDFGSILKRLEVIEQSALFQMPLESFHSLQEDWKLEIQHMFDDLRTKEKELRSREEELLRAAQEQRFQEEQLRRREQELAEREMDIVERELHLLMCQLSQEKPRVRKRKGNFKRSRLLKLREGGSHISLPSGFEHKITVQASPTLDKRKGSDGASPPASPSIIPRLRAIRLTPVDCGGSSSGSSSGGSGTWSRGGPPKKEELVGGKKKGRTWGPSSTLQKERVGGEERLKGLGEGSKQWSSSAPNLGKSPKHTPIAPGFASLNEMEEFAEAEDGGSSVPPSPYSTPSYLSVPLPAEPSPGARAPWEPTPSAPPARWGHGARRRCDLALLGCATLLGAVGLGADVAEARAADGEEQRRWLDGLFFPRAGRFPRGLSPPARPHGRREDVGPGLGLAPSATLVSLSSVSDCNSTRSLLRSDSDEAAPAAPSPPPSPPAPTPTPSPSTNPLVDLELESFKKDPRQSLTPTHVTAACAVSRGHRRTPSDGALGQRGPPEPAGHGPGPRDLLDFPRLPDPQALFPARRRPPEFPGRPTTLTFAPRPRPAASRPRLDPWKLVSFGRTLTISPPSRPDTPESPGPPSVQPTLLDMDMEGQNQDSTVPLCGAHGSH

[7] = molecular target: T3, Serine/threonine-protein kinase TAO3 (Homo sapiens) (UniProt Q9H2K8); assay: TAO3(h) Eurofins kinase panel; details: Compound concentration 1.0 uM
T3 sequence (whole entry): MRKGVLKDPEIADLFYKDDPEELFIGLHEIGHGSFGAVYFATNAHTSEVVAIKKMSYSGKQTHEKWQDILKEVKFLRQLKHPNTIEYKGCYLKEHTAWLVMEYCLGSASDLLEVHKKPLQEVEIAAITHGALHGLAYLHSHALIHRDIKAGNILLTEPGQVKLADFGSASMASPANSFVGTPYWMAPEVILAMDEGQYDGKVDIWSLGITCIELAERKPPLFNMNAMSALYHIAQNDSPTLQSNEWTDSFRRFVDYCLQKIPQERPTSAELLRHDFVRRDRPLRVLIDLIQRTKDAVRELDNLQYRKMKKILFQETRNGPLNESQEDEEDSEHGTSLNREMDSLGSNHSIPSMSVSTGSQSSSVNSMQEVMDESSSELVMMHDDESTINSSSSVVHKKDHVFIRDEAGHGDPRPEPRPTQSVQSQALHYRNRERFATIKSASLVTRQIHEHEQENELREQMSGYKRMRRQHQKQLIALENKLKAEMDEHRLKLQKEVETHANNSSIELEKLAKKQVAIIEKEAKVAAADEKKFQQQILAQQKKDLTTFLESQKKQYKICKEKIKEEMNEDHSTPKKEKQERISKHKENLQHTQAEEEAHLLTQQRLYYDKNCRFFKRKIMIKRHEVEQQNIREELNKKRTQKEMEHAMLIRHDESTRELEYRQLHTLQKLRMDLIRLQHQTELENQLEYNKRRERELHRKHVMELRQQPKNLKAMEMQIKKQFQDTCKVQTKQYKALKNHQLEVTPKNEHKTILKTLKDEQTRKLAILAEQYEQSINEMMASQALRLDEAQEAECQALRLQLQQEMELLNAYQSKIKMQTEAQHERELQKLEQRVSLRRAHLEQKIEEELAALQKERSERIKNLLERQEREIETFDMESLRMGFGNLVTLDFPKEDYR

[8] = molecular target: Angiopoietin-1 receptor (Homo sapiens) (UniProt Q02763); assay: Tie2 (h) Eurofins kinase panel; details: Compound concentration 1.0 uM
Angiopoietin-1 receptor (Homo sapiens), sequence (Q02763 whole entry): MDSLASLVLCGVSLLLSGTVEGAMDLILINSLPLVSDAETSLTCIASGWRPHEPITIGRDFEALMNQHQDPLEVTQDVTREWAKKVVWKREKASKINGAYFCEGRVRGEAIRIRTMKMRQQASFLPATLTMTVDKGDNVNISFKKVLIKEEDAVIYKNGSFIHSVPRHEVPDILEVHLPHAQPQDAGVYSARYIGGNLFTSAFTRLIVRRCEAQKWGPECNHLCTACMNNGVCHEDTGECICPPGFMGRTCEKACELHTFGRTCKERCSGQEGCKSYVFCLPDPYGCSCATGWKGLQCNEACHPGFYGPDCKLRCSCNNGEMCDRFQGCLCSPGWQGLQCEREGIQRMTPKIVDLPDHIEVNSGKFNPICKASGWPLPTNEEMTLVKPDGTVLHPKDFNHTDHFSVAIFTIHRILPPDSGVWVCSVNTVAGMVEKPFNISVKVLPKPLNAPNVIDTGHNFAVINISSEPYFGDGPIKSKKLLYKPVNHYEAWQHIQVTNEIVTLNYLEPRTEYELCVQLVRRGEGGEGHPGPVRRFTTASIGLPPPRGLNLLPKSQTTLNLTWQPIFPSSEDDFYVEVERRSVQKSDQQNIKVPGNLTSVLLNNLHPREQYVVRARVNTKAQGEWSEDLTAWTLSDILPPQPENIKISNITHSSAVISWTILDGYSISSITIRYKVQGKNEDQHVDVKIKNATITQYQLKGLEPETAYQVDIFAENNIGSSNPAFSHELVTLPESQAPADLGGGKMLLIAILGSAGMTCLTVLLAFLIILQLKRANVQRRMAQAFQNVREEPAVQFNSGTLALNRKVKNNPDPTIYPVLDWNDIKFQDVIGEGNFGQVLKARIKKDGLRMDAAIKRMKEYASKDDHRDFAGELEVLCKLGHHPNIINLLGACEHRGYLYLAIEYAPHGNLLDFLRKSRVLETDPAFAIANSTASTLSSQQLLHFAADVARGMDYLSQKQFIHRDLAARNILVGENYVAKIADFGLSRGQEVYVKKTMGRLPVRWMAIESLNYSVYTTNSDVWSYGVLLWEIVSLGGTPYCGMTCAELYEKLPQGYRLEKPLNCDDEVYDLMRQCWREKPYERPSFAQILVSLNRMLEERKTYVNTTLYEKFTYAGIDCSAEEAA

[9] = molecular target: Tyrosine-protein kinase Yes (Homo sapiens) (UniProt P07947); assay: Yes(h) Eurofins kinase panel; details: Compound concentration 1.0 uM
Tyrosine-protein kinase Yes (Homo sapiens), sequence (P07947 2-543 limits assumed): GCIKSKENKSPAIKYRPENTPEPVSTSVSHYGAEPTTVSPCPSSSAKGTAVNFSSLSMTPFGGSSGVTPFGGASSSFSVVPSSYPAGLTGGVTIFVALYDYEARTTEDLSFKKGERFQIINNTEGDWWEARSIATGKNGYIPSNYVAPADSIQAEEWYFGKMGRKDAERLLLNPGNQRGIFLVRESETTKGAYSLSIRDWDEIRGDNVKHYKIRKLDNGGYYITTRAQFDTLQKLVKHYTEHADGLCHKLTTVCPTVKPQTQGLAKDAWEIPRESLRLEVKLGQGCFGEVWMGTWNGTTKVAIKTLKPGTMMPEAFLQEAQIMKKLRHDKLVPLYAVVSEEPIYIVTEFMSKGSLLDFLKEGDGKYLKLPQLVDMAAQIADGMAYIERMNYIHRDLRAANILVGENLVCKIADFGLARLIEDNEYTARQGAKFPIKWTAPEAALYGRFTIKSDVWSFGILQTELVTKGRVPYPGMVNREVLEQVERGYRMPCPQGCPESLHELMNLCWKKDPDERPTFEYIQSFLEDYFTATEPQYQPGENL

SNU-16 = assay: SNU-16 cell line Proliferation assay; format: functional, Homo sapiens; details: time 3 day
[10] = molecular target: Ribosomal protein S6 kinase alpha-1 (Homo sapiens, UniProt Q15418)

Calcium/calmodulin-dependent protein kinase type II subunit alpha (Homo sapiens), sequence (Q9UQM7 whole entry, the tested form may be a part): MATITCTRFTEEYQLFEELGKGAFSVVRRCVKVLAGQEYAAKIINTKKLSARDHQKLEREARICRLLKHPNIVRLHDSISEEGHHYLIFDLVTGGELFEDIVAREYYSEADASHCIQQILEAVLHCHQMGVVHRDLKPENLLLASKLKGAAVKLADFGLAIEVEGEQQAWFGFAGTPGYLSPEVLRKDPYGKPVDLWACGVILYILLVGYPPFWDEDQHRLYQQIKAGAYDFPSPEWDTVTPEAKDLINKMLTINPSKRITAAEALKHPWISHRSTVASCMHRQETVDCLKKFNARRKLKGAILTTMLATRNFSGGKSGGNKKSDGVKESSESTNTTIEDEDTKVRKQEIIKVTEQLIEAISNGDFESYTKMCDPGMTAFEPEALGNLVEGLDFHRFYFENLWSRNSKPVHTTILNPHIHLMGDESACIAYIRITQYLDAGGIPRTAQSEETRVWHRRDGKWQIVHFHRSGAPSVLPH
Bone morphogenetic protein receptor type-1B (Homo sapiens), sequence (O00238 whole entry): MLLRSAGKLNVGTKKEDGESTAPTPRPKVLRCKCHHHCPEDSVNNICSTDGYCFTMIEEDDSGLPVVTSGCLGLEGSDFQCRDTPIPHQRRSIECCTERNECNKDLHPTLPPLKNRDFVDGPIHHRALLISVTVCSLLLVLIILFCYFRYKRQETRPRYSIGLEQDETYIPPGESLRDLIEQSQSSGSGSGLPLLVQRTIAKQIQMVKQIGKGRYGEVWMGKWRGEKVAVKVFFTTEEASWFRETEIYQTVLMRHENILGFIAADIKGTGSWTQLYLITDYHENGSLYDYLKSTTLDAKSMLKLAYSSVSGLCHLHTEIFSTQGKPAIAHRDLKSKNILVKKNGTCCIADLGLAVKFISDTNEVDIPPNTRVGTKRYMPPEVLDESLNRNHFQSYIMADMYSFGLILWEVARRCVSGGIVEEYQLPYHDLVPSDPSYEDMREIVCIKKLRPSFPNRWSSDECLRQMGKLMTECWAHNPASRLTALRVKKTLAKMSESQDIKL

`CCc1ccccc1C(=O)Nc1n[nH]c2c(C)c(F)c(C3C(C#N)=C(C)N(C)C(C)=C3C#N)cc12` [BAY-3827] showed a % residual kinase activity [1] of 99%, a % residual kinase activity [2] of 81% and a % residual kinase activity [3] of 92%. It also gave a % residual kinase activity [4] of 100%, a % residual kinase activity [5] of 70% and a % residual kinase activity [6] of 94%. The % residual kinase activity [7] was 102%, the % residual kinase activity [8] was 81% and the % residual kinase activity [9] was 90%. The “Cell Proliferation IC50” value (SNU-16) was 12000 nM and the IC50 [10] was 9 nM.

Reference: ChEMBL document CHEMBL4507319 (2021)
